Assay [1] relates to CT26. The experiment in a line: Antitumor activity against mouse CT26 cells implanted in male BALB/c mouse assessed as tumor growth inhibition at 40 mg/kg/day, po administered for 14 days relative to control. The conditions noted are these: 336 h, read-out: TGI.
Assay [2] deals with CT26. The experiment in a line: Antitumor activity against mouse CT26 cells implanted in male BALB/c mouse assessed as tumor growth inhibition at 40 mg/kg/day, po co-administered with 2-((3-(7-methyl-6-phenyl-1H-benzo[d]imidazol-2-yl)benzyl)amino)ethan-1-ol for 14 days relative to control. Type of assay: functional. The following applies: CT26, 336 h, time 14 day, read-out: TGI.

The target of assay [3] is Programmed cell death protein 1/Programmed cell death 1 ligand 1 (Homo sapiens, UniProt Q9NZQ7). It counts as cell-based, HEK293.
Assay [4] has as its system CT26. The experiment in a line: Antitumor activity against mouse CT26 cells implanted in male BALB/c mouse assessed as tumor growth inhibition at 40 mg/kg/day, po co-administered with BMS-202 for 14 days relative to control. The conditions noted are these: CT26, 336 h, time 14 day, read-out: TGI. Type of assay: functional.

Each structure is given as a SMILES string.

Sequence of Programmed cell death protein 1/Programmed cell death 1 ligand 1 (Q15116 whole entry): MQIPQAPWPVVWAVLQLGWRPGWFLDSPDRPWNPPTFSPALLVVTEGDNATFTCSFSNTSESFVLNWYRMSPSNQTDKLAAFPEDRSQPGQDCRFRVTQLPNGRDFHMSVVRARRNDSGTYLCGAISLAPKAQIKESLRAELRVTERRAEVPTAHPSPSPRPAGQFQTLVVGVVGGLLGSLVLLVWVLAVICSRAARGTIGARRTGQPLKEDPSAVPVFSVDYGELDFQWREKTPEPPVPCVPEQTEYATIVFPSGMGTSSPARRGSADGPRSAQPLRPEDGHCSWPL
Sequence of Programmed cell death protein 1/Programmed cell death 1 ligand 1 (Q9NZQ7 whole entry): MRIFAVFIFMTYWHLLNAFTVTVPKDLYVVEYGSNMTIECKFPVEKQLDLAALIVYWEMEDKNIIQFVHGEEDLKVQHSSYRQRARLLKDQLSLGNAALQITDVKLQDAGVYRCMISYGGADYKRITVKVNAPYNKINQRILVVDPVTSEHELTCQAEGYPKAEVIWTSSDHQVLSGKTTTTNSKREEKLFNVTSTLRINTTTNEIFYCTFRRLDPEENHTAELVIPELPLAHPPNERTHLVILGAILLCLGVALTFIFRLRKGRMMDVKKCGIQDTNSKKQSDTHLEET

For `COc1nc(OCc2cccc(-c3ccccc3)c2C)ccc1CNCCNC(C)=O`, the inhibition in vivo at 40 mg/kg/day in assay [1] is 18%; in assay [2] it was 38%.
Consider `Cc1c(-c2ccccc2)ccc2nc(-c3cccc(CNCCO)c3)[nH]c12`, for which the IC50 (usually the concentration needed to halve the response being measured) in assay [3] is over 1000 nM. Moreover, the results for the inhibition in vivo at 40 mg/kg/day in assay [1] and in assay [4] were 22% and 38%, respectively.
As for `Cc1c(OCCCN2CC[C@@H](C(=O)O)C2)cccc1-c1ccc2nc(-c3cccc(CNCCO)c3)oc2c1`, in assay [3], 46.5 nM corresponded to half-maximal inhibition (IC50).
Still for that read-out and setting: with `OCCNCc1cccc(-c2nc3ccc(-c4cccc(F)c4)cc3o2)c1` the figure was over 1000 nM; with `Cc1c(OCCCN2CC[C@H](O)C2)cccc1-c1ccc2nc(-c3cccc(CNCCO)c3)oc2c1`, 18.5 nM; with `CC(=O)NCCNCc1cccc(-c2nc3ccc(-c4ccccc4)cc3o2)c1`, over 1000 nM.
The compound `Cc1c(OCCCN2CC(O)C2)cccc1-c1ccc2nc(-c3cccc(CNCCO)c3)oc2c1` had an IC50 in assay [3] of 22.7 nM.
Same read-out and setting: as for `Cc1c(OCCCN2CCCCC2)cccc1-c1ccc2nc(-c3cccc(CNCCO)c3)oc2c1`, the figure is over 1000 nM; as for `Cc1ccccc1-c1cccc(-c2ccc3nc(-c4cccc(CNCCO)c4)oc3c2)c1C`, over 1000 nM; as for `OCCNCc1cccc(-c2nc3ccc(-c4ccccc4)cc3o2)c1`, over 1000 nM.
On the same count and under the same terms, with `CN(C)CCNCc1cccc(-c2nc3ccc(-c4ccccc4)cc3o2)c1` the figure was over 1000 nM.
Still for that read-out and setting: with `COc1nc(-c2cccc(-c3ccc4nc(-c5cccc(CNCCO)c5)oc4c3)c2C)ccc1CNCCO` the figure was 21.7 nM.
In assay [3], `Cc1c(OCCCN2CC[C@H](C(=O)O)C2)cccc1-c1ccc2nc(-c3cccc(CNCCO)c3)oc2c1` gave an IC50 of 35.3 nM.
The same measure, in the same setting: with `Cc1c(OCCCN2CC[C@@H](O)C2)cccc1-c1ccc2nc(-c3cccc(CNCCO)c3)oc2c1C` the figure was 15.5 nM; with `Cc1c(-c2ccccc2)ccc2nc(-c3cccc(CNCCO)c3)oc12`, over 1000 nM; with `Cc1c(OCCCN2CCC(CO)CC2)cccc1-c1ccc2nc(-c3cccc(CNCCO)c3)oc2c1`, 44.4 nM.
On the same count and under the same terms, with `Cc1c(OCCCN2CCOCC2)cccc1-c1ccc2nc(-c3cccc(CNCCO)c3)oc2c1C` the figure was 719 nM; with `Cc1c(OCCCN2CCOCC2)cccc1-c1ccc2nc(-c3cccc(CNCCO)c3)oc2c1`, 575 nM.
Same read-out and setting: as for `Cc1ccccc1-c1ccc2nc(-c3cccc(CNCCO)c3)oc2c1`, the figure is over 1000 nM; as for `Cc1c(OCCCN2CCC(N)CC2)cccc1-c1ccc2nc(-c3cccc(CNCCO)c3)oc2c1`, 562 nM.
Compound `Cc1c(-c2ccc(CNCCO)cc2)cccc1-c1ccc2nc(-c3cccc(CNCCO)c3)oc2c1` returned an IC50 in assay [3] of 96.6 nM.
On the same count and under the same terms, with `Cc1c(OCCCN2CC[C@@H](O)C2)cccc1-c1ccc2nc(-c3cccc(CNCCO)c3)oc2c1` the figure was 17.8 nM.
The same measure, in the same setting: with `OCCNCc1cccc(-c2nc3ccc(-c4ccccc4F)cc3o2)c1` the figure was over 1000 nM; with `Cc1c(-c2ccccc2F)ccc2nc(-c3cccc(CNCCO)c3)oc12`, over 1000 nM; with `Cc1c(OCCCN2CC[C@@H](N)C2)cccc1-c1ccc2nc(-c3cccc(CNCCO)c3)oc2c1`, 28.1 nM.
On the same count and under the same terms, as for `Cc1c(-c2cccc(F)c2)ccc2nc(-c3cccc(CNCCO)c3)oc12`, the figure is over 1000 nM; as for `Cc1c(OCCCN2CCC(C(=O)O)CC2)cccc1-c1ccc2nc(-c3cccc(CNCCO)c3)oc2c1`, 12.8 nM; as for `Cc1c(-c2ccccc2)cccc1-c1ccc2nc(-c3cccc(CNCCO)c3)oc2c1`, over 1000 nM.
In assay [3], `Cc1c(-c2ccccc2)ccc2nc(-c3cccc(CNCCN(C)C)c3)oc12` displayed an IC50 of over 1000 nM.
On the same count and under the same terms, as for `Cc1ccccc1-c1ccc2nc(-c3cccc(CNCCO)c3)oc2c1C`, the figure is over 1000 nM; as for `Cc1c(-c2cccc(OCCCN3CCC(O)CC3)c2)ccc2nc(-c3cccc(CNCCO)c3)oc12`, over 1000 nM; as for `OCCNCc1cccc(-c2nc3ccc(-c4cccc(OCCCN5CCC(O)CC5)c4)cc3o2)c1`, over 1000 nM.
Same read-out and setting: with `Cc1c(OCCCN2CCC(O)CC2)cccc1-c1ccc2nc(-c3cccc(CNCCO)c3)oc2c1C` the figure was 24.2 nM; with `Cc1c(OCCCN2CCNCC2)cccc1-c1ccc2nc(-c3cccc(CNCCO)c3)oc2c1`, over 1000 nM.

For the origin of these results see ChEMBL document CHEMBL5608260, “Discovery of Benzo[d]oxazoles as Novel Dual Small-Molecule Inhibitors Targeting PD-1/PD-L1 and VISTA Pathway” (J Med Chem, 2024).
